The values below come from PMC5298005 (Clinical Pharmacology in Drug Development, 2016).

Data set [1] is classed as in vivo, human (healthy subjects).
Data set [2] in a line: Treatment-emergent adverse events, cyclosporine study. In kind it is in vivo, human (healthy subjects). The conditions noted are these: TEAE during isavuconazole‐only administration.
Data set [3] is described as follows: Phase 1 drug-interaction study, prednisone with isavuconazole: pharmacokinetics.
The subject of the next data set is CYP3A4. Conditions: human liver microsomes expressing CYP3A4 in vitro; ref data on file; cited from earlier work. (Liver microsomes are vesicles of endoplasmic reticulum, rich in cytochrome P450 enzymes.)
Data set [4] in a line: Phase 1 drug-interaction study, sirolimus with isavuconazole: pharmacokinetics. Format: in vivo, human (healthy subjects).
Data set [5] can be described thus: Phase 1 drug-interaction study, tacrolimus with isavuconazole: pharmacokinetics. In kind it is in vivo, human (healthy subjects).
The conditions of data set [6]: cited from earlier work.
Where [7] appears, read: MPAG after MMF 1 g single oral dose.
Where [8] appears, read: both, human, plasma, oral, 200 mg.
[9] abbreviates: isavuconazole + MMF vs isavuconazole alone.
Where [10] appears, read: isavuconazole + sirolimus vs isavuconazole alone.
Where [11] appears, read: isavuconazole + cyclosporine vs isavuconazole alone.
Where [12] appears, read: isavuconazole + tacrolimus vs isavuconazole alone.
Where [13] appears, read: both, human, in vivo, po, 20 mg.
The mark [14] stands for this setting: prednisolone after prednisone 20 mg single oral dose.
Setting [15] is: prednisone + isavuconazole vs prednisone alone.
Setting [16] is: both, human, whole blood, po, 5 mg.
The mark [17] stands for this setting: tacrolimus 5 mg single oral dose.
Where [18] appears, read: tacrolimus + isavuconazole vs tacrolimus alone.
The mark [19] stands for this setting: both, human, whole blood, po, 2 mg.
The mark [20] stands for this setting: sirolimus 2 mg single oral dose.
The mark [21] stands for this setting: MMF + isavuconazole vs MMF alone.
Setting [22] is: MPA after MMF 1 g single oral dose.

Structures are written as SMILES. Read-outs that look alike come from different tables or passages of the source. Marks after values point to notes of the source that are not given here.

With `COc1c(C)c2c(c(O[C@@H]3O[C@H](C(=O)O)[C@@H](O)[C@H](O)[C@H]3O)c1C/C=C(\C)CCC(=O)O)C(=O)OC2` [MPAG, mycophenolic acid phenyl glucuronide], in data set [1] (setting [7]), the “AUC0–∞ lower in the presence vs absence of isavuconazole” value is given as 24%, the “AUClast lower in the presence vs absence of isavuconazole” value turned out to be 27% and the “Cmax lower in the presence vs absence of isavuconazole” value (“Cmax lower in the presence vs absence” below) is 32%.

`C[C@@H](c1nc(-c2ccc(C#N)cc2)cs1)[C@](O)(Cn1cncn1)c1cc(F)ccc1F` [Isavuconazole, isavuconazole]: the blood creatinine amounted to 1.4 mg/dL in data set [2] (1 subject, day 15, 0.9 mg/dL on day –1) and 1.4 mg/dL in data set [2] (second subject, by day 14, baseline 1.3 mg/dL). The AUC (usually the area under the concentration-time curve, a measure of exposure) in data set [3] (both, human, in vivo, 200 mg) worked out at 88200 ng·h/mL; the AUC in data set [4] (setting [8]) is 92000 ng·h/mL; the AUC (both, human, in vivo, 200 mg) was 108000 ng·h/mL; the AUC in data set [5] (setting [8]) was 89800 ng·h/mL. Besides, the Cmax (as a rule, the peak of the concentration-time curve) in data set [3] (both, human, in vivo, 200 mg) amounted to 5600 ng/mL; the Cmax in data set [1] (setting [8]) amounted to 6500 ng/mL; the highest level (both, human, in vivo, 200 mg) (Cmax) was 5700 ng/mL; the highest concentration (Cmax) in data set [5] (setting [8]) is 4900 ng/mL. In addition, the Tmax (in general, the time from dosing to the highest level) in data set [3] (both, human, in vivo, 200 mg) amounted to 2 h; in data set [4] (setting [8]), 2 h. Also, the isavuconazole metabolized in the data set on CYP3A4 was 66.2%. Further, the AUCτ in data set [1] (MMF study, isavuconazole 200 mg QD alone, plasma, n = 22, arithmetic mean (SD)) is 101.4 (37.6) μg·h/mL. Also, the “change of mean AUCτ of isavuconazole by coadministration with MMF” value in data set [1] (in vivo) is reported as “unchanged”. The “mean Cmax of isavuconazole increased by coadministration with MMF” value in data set [1] (in vivo) is 4%. The “AUCτ, Geometric Least‐Squares Mean, % (90%CI)” value (shortened to “AUCτ … (90%CI)”) in data set [1] (setting [9]) is listed as 101 (98, 103) %; the “AUCτ … (90%CI)” value in data set [4] (setting [10]) is on record as 111 (109, 114) %; the “AUCτ … (90%CI)” value under setting [11] is listed as 103 (100, 106) %; the “AUCτ … (90%CI)” value in data set [5] (setting [12]) is 112 (110, 115) %. Moreover, the “Cmax, Geometric Least‐Squares Mean, % (90%CI)” value in data set [1] (setting [9]) was 104 (100, 107) %; the “Cmax, Geometric Least‐Squares Mean, % (90%CI)” value in data set [4] (setting [10]) was 104 (100, 108) %; the “Cmax, Geometric Least‐Squares Mean, % (90%CI)” value under setting [11] is reported as 130 (121, 139) %; the “Cmax, Geometric Least‐Squares Mean, % (90%CI)” value in data set [5] (setting [12]) is 126 (118, 134) %. In addition, in data set [4] (in vivo), the “mean AUCτ of isavuconazole higher in the presence of sirolimus” value worked out at 11%. In addition, in data set [4] (in vivo), the “mean Cmax of isavuconazole higher in the presence of sirolimus” value was 4%. The “mean AUCτ of isavuconazole higher in the presence of tacrolimus” value in data set [5] (in vivo) turned out to be 12%. Further, the “mean Cmax of isavuconazole higher in the presence of tacrolimus” value in data set [5] (in vivo) came out at 26%.

As to `CC[C@@H]([C@H](C)O)n1ncn(-c2ccc(N3CCN(c4ccc(OC[C@@H]5CO[C@@](Cn6cncn6)(c6ccc(F)cc6F)C5)cc4)CC3)cc2)c1=O` [Posaconazole, posaconazole], in data set [6] (sirolimus coadministered with posaconazole), the “Fold increase in area under the plasma concentration‐time curve of sirolimus” value is “↑ 7.9 ^a ^,14 fold”. Also, in data set [6] (tacrolimus coadministered with posaconazole), the “Fold increase in area under the plasma concentration‐time curve of tacrolimus” value was “↑ 3.6 ^a ^,14 fold”.

For the compound `C[C@]12C=CC(=O)C=C1CC[C@@H]1[C@@H]2[C@@H](O)C[C@@]2(C)[C@H]1CC[C@]2(O)C(=O)CO` [Prednisolone, prednisolone], in data set [3] (setting [13]), the AUC(0-inf) – broadly, the area under the concentration-time curve extrapolated to infinity – was 1650 ng·h/mL; the AUC(0-t) (usually the area under the concentration-time curve up to a stated or last time point) was 1640 ng·h/mL; the highest level (Cmax) was 295 ng/mL; the Tmax was determined as 1.5 h. Further, the half-life (commonly the time in which the quantity being followed falls by half) in data set [3] (setting [13]) is 2.9 h. For the same compound, in data set [3] (setting [14]), the “Cmax lower in the presence vs absence” value was determined as 4%, the “Mean AUC0–∞ higher in the presence vs absence of isavuconazole” value was 8% and the “Mean AUClast higher in the presence vs absence of isavuconazole” value is recorded as 8%. Also, in data set [3] (setting [15]), the “AUC0–∞, Geometric Least‐Squares Mean Ratio, % (90%CI)” value was 108 (102, 114) %; the “AUClast, Geometric Least‐Squares Mean Ratio, % (90%CI)” value is on record as 108 (102, 114) %; the “Cmax, Geometric Least‐Squares Mean Ratio, % (90%CI)” value is 96 (90, 102) %.

Turning to `C=CC[C@@H]1/C=C(\C)C[C@H](C)C[C@H](OC)[C@H]2O[C@@](O)(C(=O)C(=O)N3CCCC[C@H]3C(=O)O[C@H](/C(C)=C/[C@@H]3CC[C@@H](O)[C@H](OC)C3)[C@H](C)[C@@H](O)CC1=O)[C@H](C)C[C@@H]2OC` [Tacrolimus, tacrolimus], in data set [5] (setting [16]), the AUC(0-inf) came out at 313 ng·h/mL, the AUC(0-t) was 304 ng·h/mL and the concentration peaked (Cmax) at 26.7 ng/mL. In data set [5] (setting [17]), the “Mean AUC0–∞ higher in the presence vs absence of isavuconazole” value came to 125%, the “Mean AUClast higher in the presence vs absence of isavuconazole” value was found to be 127% and the “Mean Cmax higher in the presence vs absence of isavuconazole” value is 42%. In data set [5] (setting [18]), the “AUC0–∞, Geometric Least‐Squares Mean Ratio, % (90%CI)” value is 225 (191, 266) %; the “AUClast, Geometric Least‐Squares Mean Ratio, % (90%CI)” value is listed as 227 (192, 268) %; the “Cmax, Geometric Least‐Squares Mean Ratio, % (90%CI)” value is listed as 142 (122, 164) %.

For `C[C@@H](c1ncncc1F)[C@](O)(Cn1cncn1)c1ccc(F)cc1F` [Voriconazole, voriconazole], the “Fold increase in area under the plasma concentration‐time curve of cyclosporine” value in data set [6] (cyclosporine coadministered with voriconazole) was “↑ 1.7 ^a ^,7 fold”. The “Fold increase in area under the plasma concentration‐time curve of sirolimus” value in data set [6] (sirolimus coadministered with voriconazole) is “↑ 11 ^a ^,7 fold”. In addition, the “Fold increase in area under the plasma concentration‐time curve of tacrolimus” value in data set [6] (tacrolimus coadministered with voriconazole) is recorded as “↑ 3 ^a ^,7 fold”. Further, in data set [6] (voriconazole coadministration, ref VFEND package insert), the “effect of coadministration on MPA AUC” value is given as “no significant effect”.

Take `CO[C@H]1C[C@@H]2CC[C@@H](C)[C@@](O)(O2)C(=O)C(=O)N2CCCC[C@H]2C(=O)O[C@H]([C@H](C)C[C@@H]2CC[C@@H](O)[C@H](OC)C2)CC(=O)[C@H](C)/C=C(\C)[C@@H](O)[C@@H](OC)C(=O)[C@H](C)C[C@H](C)/C=C/C=C/C=C/1C` [Sirolimus, sirolimus]: in data set [4] (setting [19]), the AUC(0-inf) amounted to 196 ng·h/mL, the AUC(0-t) is 152 ng·h/mL, the Cmax was 5.1 ng/mL and the half-life was 74.8 h. Besides, in data set [4] (setting [20]), the “Mean AUC0–∞ higher in the presence vs absence of isavuconazole” value was found to be 84%, the “Mean AUClast higher in the presence vs absence of isavuconazole” value was found to be 108% and the “Mean Cmax higher in the presence vs absence of isavuconazole” value stood at 65%.

`COc1c(C)c2c(c(O)c1C/C=C(\C)CCC(=O)O)C(=O)OC2` [Mycophenolic Acid, mycophenolic acid]: in data set [1] (MMF 1 g single oral dose alone, plasma, n = 24, arithmetic mean (SD)), the CL/F is on record as 11.5 (3.4) L/h. For the same compound, in data set [1] (setting [21]), the “AUC0–∞, Geometric Least‐Squares Mean Ratio, % (90%CI)” value is on record as 135 (127, 145) %; the “AUClast, Geometric Least‐Squares Mean Ratio, % (90%CI)” value is given as 132 (124, 141) %; the “Cmax, Geometric Least‐Squares Mean Ratio, % (90%CI)” value is given as 89 (76, 103) %. Besides, in data set [1] (setting [22]), the “Cmax lower in the presence vs absence” value is reported as 11%, the “Mean AUC0–∞ higher in the presence vs absence of isavuconazole” value is recorded as 35% and the “Mean AUClast higher in the presence vs absence of isavuconazole” value is 32%. For the same compound, in data set [1] (both, human, plasma, po, 1 g), the Tmax was determined as 0.5 h and the half-life is 12.6 h.

Regarding `CCC(C)n1ncn(-c2ccc(N3CCN(c4ccc(OCC5COC(Cn6cncn6)(c6ccc(Cl)cc6Cl)O5)cc4)CC3)cc2)c1=O` (stereo not drawn) [Itraconazole, itraconazole], in data set [6] (cyclosporine coadministered with itraconazole), the “Fold increase in trough concentrations of cyclosporine” value is “↑ 2.7 ^b ^,13 fold”. Besides, the “Fold increase in trough concentrations of tacrolimus” value in data set [6] (tacrolimus coadministered with itraconazole) is “↑ 5.6 ^b ^,13 fold”.
